# Read-outs that look alike come from different tables or passages of the source.
# Assays:
# [1] = tested on: MCF-7 human breast cancer cells (fatty acid oxidation pathway activity); experiment: Fatty acid oxidation ([14C]palmitate to acid soluble products); type: cell-based; conditions: for Emax at 0.098 µg/mL: at 0.098 μg/ml
# Experimental: Measurement of Fatty Acid Oxidation and Determination of SC150 of Compounds This assay measures the degradation of [^14C]palmitate into acid soluble products and is a measure of fatty acid oxidation pathway activity in vitro. It is utilized to measure fatty acid oxidation in vitro. MCF-7 human breast cancer cells cultured as above, are plated at 2.5×10^5 cells per well in 24-well plates. Following overnight incubation, the compounds to be tested, solubilized in DMSO, are added at […], 0.39, 1.56, 6.25, 25, and 100 μg/ml in triplicate, with lower concentrations tested if necessary. DMSO is added to triplicate wells for a vehicle control. C75 is run at 5 and 10 μg/ml in triplicate as positive controls. After 1 hour of incubation, medium is removed 100 uM of [^14C] palmitate in cyclodextran and 200 uM carnitine in serum free medium (250 μl volume) is added to each well. After 30 minutes of additional incubation, the reaction is stopped by addition of 2.6N HClO4. Contents of each well are transferred to 1.5 ml Eppendorf tubes and 4N KOH is added. The tubes are incubated for 30 minutes at 60° C. 1 M NaAcetate and 3N H2SO4 is added to each tube and vortexed. The tubes are centrifuged at 1000 rpm for 5 minutes at RT. 250 μl of the supernatant is transferred to a 2 ml eppendorf tube. To each tube is added: 938 μl of chloroform:methanol (1:1), 468 μl chloroform and 281 μl of deionized water. The tubes are vortexed and centrifuged at 1000 rpm for 5 minutes at RT. 750 μl of the upper phase is transferred into a scintillation vial 5 ml of scintillant is added and vials are counted for 1 minute for ^14C. The Beckman Scintillation counter calculates the average cpm values for triplicates. The SC150 for the compounds is defined as the concentration of drug leading to a 150% increase in production of acid soluble products of [^14C] palmitate as compared to untreated controls. This is determined by plotting the average cpm for each inhibitor concentration tested, performing linear regression and computing the best-fit line, r^2 values, and 95% confidence intervals. The average cpm values are computed by the Beckman scintillation counter (Model LS6500) for each compound concentration. Computation of linear regression, best-fit line, r^2, and 95% confidence intervals are calculated using Prism Version 3.0 (Graph Pad Software). If a compound fails to achieve this 150% threshold it is considered negative. The maximum value achieved is also reported (FAO Max).
# [2] = tested on: HCT116 cells; experiment: XTT cytotoxicity assay, HCT116 (H); type: cell-based; conditions: Homo sapiens, HCT-116
# Experimental: (§1) XTT Cytotoxicity Assay The XTT assay is a non-radioactive alternative for the [^51Cr] release cytotoxicity assay. XTT is a tetrazolium salt that is reduced to a formazan dye only by metabolically active, viable cells. The reduction of XTT is measured spectrophotometrically as OD490-OD650. To measure the cytotoxicity of specific compounds against cancer cells, 9×10^3 MCF-7 human breast cancer cells (shown in the tables as “(M)”), obtained from the American Type Culture Collection are plated per well in 96 well plates in DMEM medium with 10% fetal bovine serum, insulin, penicillin, and streptomycin. Following overnight culture at 37° C. and 5% CO2, the compounds to be tested, dissolved in DMSO, are added to the wells in 1 μl volume at the following concentrations: 80, 40, 20, 10, 5, 2.5, 1.25, and 0.625 μg/ml in triplicate. Additional concentrations are tested if required. 1 μl of DMSO is added to triplicate wells are the vehicle control. C75 is run at 40, 20, […], and 5 μg/ml in triplicate as positive controls. After 72 hours of incubation, cells are incubated for 4 hours with the XTT reagent as per manufacturer's instructions (Cell Proliferation Kit II (XTT) Roche). Plates are read at OD490 and OD650 on a Molecular Devices SpectraMax Plus Spectrophotometer. Three wells containing the XTT reagent without cells serve as the plate blank. XTT data are reported as OD490-OD650. Averages and standard error of the mean are computed using SOFTmax Pro software (Molecular Dynamics). The IC50 for the compounds is defined as the concentration of drug leading to a 50% reduction in OD490-OD650 compared to controls. The OD490-OD650 are computed by the SOFTmax PRO software (Molecular Devices) for each compound concentration. IC50 is calculated by linear regression, plotting the FAS activity as percent of control versus drug concentrations. Linear regression, best-fit line, r^2, and 95% confidence intervals are determined using Prism Version 3.0 (Graph Pad Software). The test was also run against OVCAR3 cells (“OV”), and HCT116 cells (“H”).
# [3] = tested on: OVCAR3 cells; experiment: XTT cytotoxicity assay, OVCAR3 (OV); type: cell-based; conditions: Homo sapiens
# Experimental: as §1
# [4] = tested on: MCF-7 human breast cancer cells; experiment: XTT cytotoxicity assay, MCF-7 (M); type: cell-based; conditions: MCF7, MCF-7, 72 hours
# Experimental: XTT Cytotoxicity Assay The XTT assay is a non-radioactive alternative for the [^51Cr] release cytotoxicity assay. XTT is a tetrazolium salt that is reduced to a formazan dye only by metabolically active, viable cells. The reduction of XTT is measured spectrophotometrically as OD490-OD650. To measure the cytotoxicity of specific compounds against cancer cells, 9×10^3 MCF-7 human breast cancer cells (shown in the tables as “(M)”), obtained from the American Type Culture Collection are plated per well in 96 well plates in DMEM medium with 10% fetal bovine serum, insulin, penicillin, and streptomycin. Following overnight culture at 37° C. and 5% CO2, the compounds to be tested, dissolved in DMSO, are added to the wells in 1 μl volume at the following concentrations: 80, 40, 20, 10, 5, 2.5, 1.25, and 0.625 μg/ml in triplicate. Additional concentrations are tested if required. 1 μl of DMSO is added to triplicate wells are the vehicle control. C75 is run at 40, 20, […], and 5 μg/ml in triplicate as positive controls. After 72 hours of incubation, cells are incubated for 4 hours with the XTT reagent as per manufacturer's instructions (Cell Proliferation Kit II (XTT) Roche). Plates are read at OD490 and OD650 on a Molecular Devices SpectraMax Plus Spectrophotometer. Three wells containing the XTT reagent without cells serve as the plate blank. XTT data are reported as OD490-OD650. Averages and standard error of the mean are computed using SOFTmax Pro software (Molecular Dynamics). The IC50 for the compounds is defined as the concentration of drug leading to a 50% reduction in OD490-OD650 compared to controls. The OD490-OD650 are computed by the SOFTmax PRO software (Molecular Devices) for each compound concentration. IC50 is calculated by linear regression, plotting the FAS activity as percent of control versus drug concentrations. Linear regression, best-fit line, r^2, and 95% confidence intervals are determined using Prism Version 3.0 (Graph Pad Software).
# [5] = Solubility problem noted during the assays; type: physicochemical; conditions: read-out: Sol Prob (solubility problem at concentration)
# [6] = tested on: MCF-7 human breast cancer cells (fatty acid synthesis pathway activity); experiment: [14C]acetate incorporation into total lipids; type: cell-based; conditions: MCF7, [14C]acetate incorporation into lipids
# Experimental: Measurement of [^14C]acetate Incorporation into Total Lipids and Determination of IC50 of Compounds. This assay measures the incorporation of [^14C]acetate into total lipids and is a measure of fatty acid synthesis pathway activity in vitro. It is utilized to measure inhibition of fatty acid synthesis in vitro.
# MCF-7 human breast cancer cells cultured as above, are plated at 5×10^4 cells per well in 24-well plates. Following overnight incubation, the compounds to be tested, solubilized in DMSO, are added at 5, 10, and 20 μg/ml in triplicate, with lower concentrations tested if necessary. DMSO is added to triplicate wells for a vehicle control. C75 is run at 5 and 10 μg/ml in triplicate as positive controls. After 4 hours of incubation, 0.25 μCi of [^14C]acetate (10 μl volume) is added to each well.
# After 2 hours of additional incubation, medium is aspirated from the wells and 800 μl of chloroform:methanol (2:1) and 700 μl of 4 mM MgCl2 is added to each well. Contents of each well are transferred to 1.5 Eppendorf tubes, and spun at full-speed for 2 minutes in a high-speed Eppendorf Microcentrifuge 5415D. After removal of the aqueous (upper) layer, an additional 700 μl of chloroform:methanol (2:1) and 500 μl of 4 mM MgCl2 are added to each tube and then centrifuged for 1 minutes as above. The aqueous layer is removed with a Pasteur pipette and discarded. An additional 400 μl of chloroform:methanol (2:1) and 200 μl of 4 mM MgCl2 are added to each tube, then centrifuged and aqueous layer is discarded. The lower (organic) phase is transferred into a scintillation vial and dried at 40° C. under N2 gas. Once dried, 3 ml of scintillant (APB #NBC5104) is added and vials are counted for ^14C. The Beckman Scintillation counter calculates the average cpm values for triplicates.
# The IC50 for the compounds is defined as the concentration of drug leading to a 50% reduction in [^14C]acetate incorporation into lipids compared to controls. This is determined by plotting the average cpm for each inhibitor concentration tested, performing linear regression and computing the best-fit line, r^2 values, and 95% confidence intervals. The average cpm values are computed by the Beckman scintillation counter (Model LS6500) for each compound concentration. Computation of linear regression, best-fit line, r^2, and 95% confidence intervals are calculated using Prism Version 3.0 (Graph Pad Software).
# [7] = tested on: Enterococcus faecalis (ATCC # 29212); experiment: Broth microdilution antimicrobial assay, E. faecalis; type: cell-based
# Experimental: Antimicrobial Properties A broth microdilution assay is used to assess the antimicrobial activity of the compounds. Compounds are tested at twofold serial dilutions, and the concentration that inhibits visible growth (OD600 at 10% of control) is defined as the MIC. Microorganisms tested include Staphylococcus aureus (ATCC # 29213), Enterococcus faecalis (ATCC # 29212), Pseudomonas aerpginosa (ATCC # 27853), and Escherichia coli (ATCC # 25922). The assay is performed in two growth media, Mueller Hinton Broth and Trypticase Soy Broth.
# A blood (Tsoy/5% sheep blood) agar plate is inoculated from frozen stocks maintained in T soy broth containing 10% glycerol and incubated overnight at 37° C. Colonies are suspended in sterile broth so that the turbidity matches the turbidity of a 0.5 McFarland standard. The inoculum is diluted 1:10 in sterile broth (Mueller Hinton or Trypticase soy) and 195 μl is dispensed per well of a 96-well plate. The compounds to be tested, dissolved in DMSO, are added to the wells in 5 μl volume at the following concentrations: 25, 12.5, 6.25, 3.125, 1.56 and 0.78 μg/ml in duplicate. Additional concentrations are tested if required. 5 μl of DMSO added to duplicate wells are the vehicle control. Serial dilutions of positive control compounds, vancomycin (E. faecalis and S. aureus) and tobramycin (E. coli and P. aerpginosa), are included in each run.
# After 24 hours of incubation at 37° C., plates are read at OD600 on a Molecular Devices SpectraMax Plus Spectrophotometer. Average OD600 values are computed using SOFTmax Pro Software (Molecular Devices) and MIC values are determined by linear regression analysis using Prism version 3.02 (Graph Pad Software, San Diego). The MIC is defined as the concentration of compound required to produce an OD600 reading equivalent to 10% of the vehicle control reading.
# [8] = Homo sapiens, MCF7, read-out: FAO Max
Compound,"Emax at 1.56 µg/mL ([1]; Homo sapiens, MCF7, at 1.56 μg/ml, read-out: FAO Max)",IC50 [2],IC50 ([3]; OVCAR-3),IC50 [4],"Emax at 6.25 µg/mL ([1]; Homo sapiens, MCF7, at 6.25 μg/ml, read-out: FAO Max)","FAO SC 150 ([1]; concentration leading to 150% of control acid soluble products, Neg = threshold not reached)","solubility ([5]; noted under the 14C column, unit inferred)","IC50 ([3]; OVCAR-3, unit given as ml)",IC50 [6],solubility [5],"Emax at 0.098 µg/mL [1, 8]",EF/MH (MIC) ([7]; Mueller Hinton Broth),EF/Tsoy (MIC) ([7]; Trypticase Soy Broth)
CCCCCCCCC1(C)SC(=O)C=C1OCC(=O)N1CCN(c2ccc(C(F)(F)F)cc2)CC1 (centres unmarked),118%,> 80 mg/L,> 80 mg/L,50.7 mg/L,–,–,–,–,–,–,–,–,–
CCCCCCCCC1(C)SC(=O)C=C1OCC(=O)Nc1ccc(C(=O)OC)cc1 (centres unmarked),–,6.3 mg/L,–,6.5 mg/L,126%,Neg,0.08 mg/mL,12.7 mg/L,–,–,–,–,–
CCCCCCCCC1(C)SC(=O)C=C1OCC(=O)Nc1ccc(S(N)(=O)=O)cc1 (centres unmarked),–,8.7 mg/L,13.4 mg/L,7 mg/L,–,–,–,–,26.3 mg/L,0.08 mg/mL,–,–,–
CCCCCCCCC1(C)SC(=O)C=C1OCC(=O)N1CCN(c2ccc(Cl)cc2)CC1 (centres unmarked),–,9.7 mg/L,24.4 mg/L,35.7 mg/L,–,–,–,–,–,–,79%,–,–
CCCCCCCCC1(C)SC(=O)C=C1OCC(=O)Nc1ccc(C)cc1 (centres unmarked),–,12.8 mg/L,8.1 mg/L,6.8 mg/L,–,–,–,–,–,–,–,Neg,Neg
CCCCCCCCC1(C)SC(=O)C=C1OCC(=O)N1CCN(c2ccc(OC)cc2)CC1 (centres unmarked),–,> 80 mg/L,> 80 mg/L,> 80 mg/L,–,–,–,–,–,–,53%,–,–
CCCCCCCCC1(C)SC(=O)C=C1OCC(=O)N1CCN(Cc2ccc(OC)cc2)CC1 (centres unmarked),–,69.7 mg/L,79.8 mg/L,13.6 mg/L,–,–,–,–,–,–,83%,–,–

# Source: patent US20110288052A1, “NOVEL COMPOUNDS, PHARMACEUTICAL COMPOSITIONS CONTAINING SAME, AND METHODS OF USE FOR SAME” (priority 2008, published 2011)
